Results: US6506766B1 (Abbott Laboratories, priority 1998, dated 2003)

How the values were obtained:
[1] = target: T1, human progesterone receptor-A [PRA] isoform (Homo sapiens, UniProt P06401); assay: Radioligand binding with human progesterone receptor cytosol ([3H]-progesterone competition); conditions: PRA cytosol expressed in insect SF21 cells, [3H]Prog ~0.8 nM, 4° C. overnight; Ki by Cheng-Prusoff, KL ~4.5 nM; read-out: Ki (nM) PR
T1 construct: host or cells: insect SF21 cells (baculovirus)
T1 sequence (P06401 1-769 isoform P06401-2): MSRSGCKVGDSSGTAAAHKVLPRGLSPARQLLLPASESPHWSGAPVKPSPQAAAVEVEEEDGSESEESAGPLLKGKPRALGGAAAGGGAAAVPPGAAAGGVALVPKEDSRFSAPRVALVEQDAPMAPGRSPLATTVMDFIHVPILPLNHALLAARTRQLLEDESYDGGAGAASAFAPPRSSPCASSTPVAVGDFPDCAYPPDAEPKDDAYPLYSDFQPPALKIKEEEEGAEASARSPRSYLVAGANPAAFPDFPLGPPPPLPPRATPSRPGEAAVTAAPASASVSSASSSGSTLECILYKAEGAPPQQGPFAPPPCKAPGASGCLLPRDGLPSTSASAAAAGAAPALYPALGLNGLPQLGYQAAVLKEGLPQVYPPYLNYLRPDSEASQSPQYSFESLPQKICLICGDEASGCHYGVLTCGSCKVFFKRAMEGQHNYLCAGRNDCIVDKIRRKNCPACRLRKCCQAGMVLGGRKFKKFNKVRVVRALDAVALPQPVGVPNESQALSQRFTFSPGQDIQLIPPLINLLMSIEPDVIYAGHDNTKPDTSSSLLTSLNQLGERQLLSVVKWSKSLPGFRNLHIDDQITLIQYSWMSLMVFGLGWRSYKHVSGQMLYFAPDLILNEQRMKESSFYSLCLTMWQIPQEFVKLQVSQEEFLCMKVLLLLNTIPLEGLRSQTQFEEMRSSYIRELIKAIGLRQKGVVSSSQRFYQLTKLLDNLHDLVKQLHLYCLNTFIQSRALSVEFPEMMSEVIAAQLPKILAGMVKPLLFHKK

[2] = target: T2, human glucocorticoid receptor-α [GRX] isoform (Homo sapiens, UniProt P04150); assay: Radioligand binding with human glucocorticoid receptor cytosol ([3H]-dexamethasone competition); conditions: GRX cytosol expressed in insect SF21 cells, [3H]-Dex ~0.9 nM, 4° C. overnight; Ki by Cheng-Prusoff, KL ~[…]; read-out: Ki (nM) GR
T2 construct: host or cells: insect SF21 cells (baculovirus)
T2 sequence (P04150 1-777): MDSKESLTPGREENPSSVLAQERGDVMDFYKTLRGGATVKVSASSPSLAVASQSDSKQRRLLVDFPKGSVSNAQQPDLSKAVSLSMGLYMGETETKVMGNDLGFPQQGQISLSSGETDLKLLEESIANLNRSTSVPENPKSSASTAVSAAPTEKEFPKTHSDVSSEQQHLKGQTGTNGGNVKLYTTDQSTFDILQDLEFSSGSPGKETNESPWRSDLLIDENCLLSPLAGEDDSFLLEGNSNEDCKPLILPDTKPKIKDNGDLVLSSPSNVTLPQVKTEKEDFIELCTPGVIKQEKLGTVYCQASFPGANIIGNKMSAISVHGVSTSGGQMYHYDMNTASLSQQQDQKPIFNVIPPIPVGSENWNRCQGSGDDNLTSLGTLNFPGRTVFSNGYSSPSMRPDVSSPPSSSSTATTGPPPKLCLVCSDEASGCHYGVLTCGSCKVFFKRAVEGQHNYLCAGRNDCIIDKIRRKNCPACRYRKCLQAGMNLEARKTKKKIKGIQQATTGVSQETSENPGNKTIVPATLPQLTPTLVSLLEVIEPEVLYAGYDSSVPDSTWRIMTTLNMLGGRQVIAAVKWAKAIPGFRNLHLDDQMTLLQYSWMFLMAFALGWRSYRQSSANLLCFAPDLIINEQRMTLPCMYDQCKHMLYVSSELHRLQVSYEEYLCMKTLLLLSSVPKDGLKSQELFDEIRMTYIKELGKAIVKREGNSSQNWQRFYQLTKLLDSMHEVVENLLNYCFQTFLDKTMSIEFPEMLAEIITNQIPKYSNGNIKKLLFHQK

| Structure (SMILES) | Ki [1] [nM] | Ki [2] [nM] |
| --- | --- | --- |
| COc1cccc2c1-c1ccc3c(c1C(c1ccccc1)O2)C(C)=[N+]([O-])C(C)(C)N3 (stereo not drawn) [Example 357, 2,5-Dihydro-10-methoxy-2,2,4-trimethyl-3-oxide-5-phenyl-1H-[1]benzopyrano[3,4-f]quinazoline] | ≥ 10000 | 59.8 |
| COc1cccc2c1-c1ccc3c(c1C(c1ccccc1)O2)C(C)=NC(C)(C)N3 (stereo not drawn) [Example 358, 2,5-Dihydro-10-methoxy-2,2,4-trimethyl-5-phenyl-1H-[1]benzopyrano[3,4-f]quinazoline] | 8960 | 4.2 |
| C=CCC1Oc2cccc(OC)c2-c2ccc3c(c21)C(C)=CC1(CCOCC1)N3 (stereo not drawn) [Example 359, 2,5-Dihydro-10-methoxy-2,2-[spiro(tetrahydro-4-pyranyl)]-4-methyl-5-ally-1H-[1]benzopyrano[3,4-f]quinoline] | 2220 | 11.3 |
| C=CCC1Oc2cccc(OC)c2-c2ccc3c(c21)C(C)=CC(CC)(CC)N3 (stereo not drawn) [Example 361, 2,5-Dihydro-10-methoxy-2,2-diethyl-4-methyl-5-allyl-1H-[1]benzopyrano[3,4-f]quinoline] | 9140 | 95.7 |
| C=CCC1Oc2cccc(OC)c2-c2ccc3c(c21)C(C)=C(C)C(C)(C)N3 (stereo not drawn) [Example 362, 2,5-Dihydro-10-methoxy-2,2,3,4-tetramethyl-5-allyl-1H-[1]benzopyrano[3,4-f]quinoline] | 3370 | 6.5 |
| COc1c(O)ccc2c1-c1ccc3c(c1/C(=C/c1cc(F)ccc1F)O2)C(C)=CC(C)(C)N3 [Example 366, Z-5-(2,5-Difluorobenzylidenyl)-9-hydroxy-10-methoxy-2,2,4-trimethyl-1H-2,5-dihydro-[1]benzopyrano[3,4-f]quinoline] | 83.9 | 2.1 |
| COc1c(O)ccc2c1-c1ccc3c(c1/C(=C/c1ccc(F)cc1)O2)C(C)=CC(C)(C)N3 [Example 372, (Z)9-Hydroxy-10-methoxy-5-((4-fluorophenyl)methylene)-2,2,4-trimethyl-1H-2,5-dihydro-[1]benzopyrano[3,4-f]quinoline] | 164 | 1.8 |
| COc1c(O)ccc2c1-c1ccc3c(c1/C(=C/c1cccc(F)c1)O2)C(C)=CC(C)(C)N3 [Example 374, Z-5-(3-Fluorobenzylidenyl)-10-methoxy-9-hydroxy-2,2,4-trimethyl-2,5-dihydro-1H-[1]benzopyrano[3,4-f]quinoline] | 222 | 9 |
| CCC1Oc2ccc(O)c(OC)c2-c2ccc3c(c21)C(C)=CC(C)(C)N3 (stereo not drawn) [Example 376, 9-Hydroxy-10-methoxy-5-ethyl-2,2,4-trimethyl-2,5-dihydro-1H-[1]benzopyrano[3,4-f]quinoline] | 156 | 0.78 |
| C=CCC1Oc2ccc(OC(=O)CCC(=O)N(CC)CC)c(OC)c2-c2ccc3c(c21)C(C)=CC(C)(C)N3 (stereo not drawn) [Example 378, 2,5-Dihydro-9-(4-N,N-diethylamino-4-oxo-butanoyloxy)-10-methoxy-2,2,4-trimethyl-5-(2-propenyl)-1H-[1]benzopyrano[3,4-f]quinoline] | 440 | 1.1 |
| C=CCC1Oc2ccc(OC(=O)CCC(=O)N3CCOCC3)c(OC)c2-c2ccc3c(c21)C(C)=CC(C)(C)N3 (stereo not drawn) [Example 380, 2,5-Dihydro-9-(4-N-morpholino-4-oxo-butanoyloxy)-10-methoxy-2,2,4-trimethyl-5-(2-propenyl)-1H-[1]benzopyrano[3,4-f]quinoline] | 204 | 1.2 |
| COc1c(OC(=O)CCC(=O)N(C)C)ccc2c1-c1ccc3c(c1C(c1cc(F)c(F)c(F)c1)O2)C(C)=CC(C)(C)N3 (stereo not drawn) [Example 381, 2,5-Dihydro-9-(4-N,N-dimethylamino-4-oxo-butanoyloxy)-10-methoxy-2,2,4-trimethyl-5-(3,4,5-trifluorophenyl)-1H-[1]benzopyrano[3,4-f]quinoline] | 9820 | 7.1 |
| COc1c(O)ccc2c1-c1ccc3c(c1C(C1CCCC1)O2)C(C)=CC(C)(C)N3 (stereo not drawn) [Example 384, 2,5-Dihydro-9-hydroxy-10-methoxy-2,2,4-trimethyl-5-cyclopentyl-1H-[1]benzopyrano[3,4-f]quinoline] | 197 | 0.67 |

The remaining lines, values ahead:

| Ki [1] [nM] | Ki [2] [nM] | Structure (SMILES) |
| --- | --- | --- |
| 3940 | 5 | C=CCC1Oc2cccc(OC)c2-c2ccc3c(c21)C(CC)=CC(C)(C)N3 (stereo not drawn) [Example 363, 2,5-Dihydro-10-methoxy-2,2-dimethyl-4-ethyl-5-allyl-1H-[1]benzopyrano[3,4-f]quinoline] |
| ≥ 10000 | 424 | C=CCC1Oc2cccc(OC)c2-c2ccc3c(c21)C=C(C)C(C)(C)N3 (stereo not drawn) [Example 364, 2,5-Dihydro-10-methoxy-2,2,3-trimethyl-5-allyl-1H-[1]benzopyrano[3,4-f]quinoline] |
| 61 | 0.21 | CC1=CC(C)(C)Nc2ccc3c(c21)/C(=C/c1ccccn1)Oc1ccc(O)c(Cl)c1-3 [Example 368, Z-10-Chloro-9-hydroxy-5-(2-picolinylidenyl)-2,2,4-trimethyl-2,5-dihydro-1H-[1]benzopyrano[3,4-f]quinoline] |
| 2530 | 0.41 | COc1c(O)ccc2c1-c1ccc3c(c1/C(=C/c1ccccn1)O2)C(C)=CC(C)(C)N3 [Example 369, Z-9-Hydroxy-10-methoxy-5-(2-picolinylidenyl)-2,2,4-trimethyl-2,5-dihydro-1H-[1]benzopyrano[3,4-f]quinoline] |
| 279 | 3.1 | COc1c(O)ccc2c1-c1ccc3c(c1/C(=C/c1cccc(F)c1F)O2)C(C)=CC(C)(C)N3 [Example 373, (Z)-9-Hydroxy-10-methoxy-5-([2,3-difluorophenyl]methylene)-2,2,4-trimethyl-1H-2,5-dihydro-[1]benzopyrano[3,4-f]quinoline] |
| 175 | 1.4 | C=CCC1Oc2ccc(OC(=O)CCC(=O)N3CCCCC3)c(OC)c2-c2ccc3c(c21)C(C)=CC(C)(C)N3 (stereo not drawn) [Example 379, 2,5-Dihydro-9-(4-N-piperidino-4-oxo-butanoyloxy)-10-methoxy-2,2,4-trimethyl-5-(2-propenyl)-1H-[1]benzopyrano[3,4-f]quinoline] |
| 46 | 4.8 | CC1=CC(C)(C)Nc2ccc3c(c21)C(c1cccs1)Oc1ccc(O)c(Cl)c1-3 (stereo not drawn) [Example 383, 2,5-Dihydro-9-hydroxy-10-chloro-2,2,4-trimethyl-5-(2-thienyl)-1H-[1]benzopyrano[3,4-f]quinoline] |
| 105 | 6.5 | C=CCC1Oc2ccc(CO)c(OC)c2-c2ccc3c(c21)C(C)=CC(C)(C)N3 (stereo not drawn) [Example 386, 2,5-Dihydro-9-hydroxymethyl-10-methoxy-2,2,4-trimethyl-5-allyl-1H-[1]benzopyrano[3,4-f]quinoline] |
| 169 | 0.65 | C=CCCCC1Oc2ccc(O)c(OC)c2-c2ccc3c(c21)C(C)=CC(C)(C)N3 (stereo not drawn) [Example 387] |
| 199 | 2.8 | C=CCC1Oc2ccc(C(=O)OC)c(OC)c2-c2ccc3c(c21)C(C)=CC(C)(C)N3 (stereo not drawn) [Example 388, 2,5-Dihydro-9-methylcarboxylate-10-methoxy-2,2,4-trimethyl-5-allyl-1H-[1]benzopyrano[3,4-f]quinoline] |
| 27.5 | 0.58 | C=C=CC1Oc2ccc(O)c(OC)c2-c2ccc3c(c21)C(C)=CC(C)(C)N3 (stereo not drawn) [Example 389, 2,5-Dihydro-9-hydroxy-10-methoxy-2,2,4-trimethyl-5-allenyl-1H-[1]benzopyrano[3,4-f]quinoline] |
